Source: ChEMBL document CHEMBL1201862, “PubChem BioAssay data set” (2004)
Active and inactive are the calls of the source.

Assays:
[1] = biological target: Glucose-6-phosphate 1-dehydrogenase (Homo sapiens, UniProt P11413); test: human G6PD enzyme inhibitors, dose response, selectivity assay for P. falciparum G6PD inhibitor project, biochemical, fluorescence (AID 504792); assay type: functional
[2] = biological target: T1, Mitochondrial peptide methionine sulfoxide reductase (Bos taurus, UniProt P54149); assay type: functional;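 for IC50: absorbance read-out, biochemical high-throughput dose-response screen for MsrA inhibitors, confirmatory; recombinant bovine MsrA coupled to E. coli TrxB with NADPH and selenocystamine; potency is for inhibitors of MsrA activity on DMSO substrate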
[3] = inhibitors of HIV Env-driven cell fusion, dose response, cherry-pick (AID 652057); assay type: functional, cell-based
[4] = CEM21 lymphoblast cell cytotoxicity, dose response, cytotoxicity control for viral fusion inhibitor project, CellTiter-Glo luminescence, cherry-picked (AID 652042); assay type: functional, cell-based;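 note: potency for signal decrease meaning cytotoxicity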
[5] = ZM109 Env clade C HIV-1 fusion inhibitors, dose response, HeLa effector, CEM target cells, luciferase, cherry-pick (AID 652058); assay type: functional, cell-based
[6] = off-target signal loss in HeLa-CEM21 co-culture – HeLa F-luc CTL cells, cherry-picked, counter-screen for HIV-1 Env fusion inhibitor project, dose response (AID 652040); assay type: functional, cell-based;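 note: potency for signal decrease marking cytotoxic or nonspecific inhibition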
[7] = inhibitors of clade B AD8 Env fusion, dose response, cell-based, cherry-pick (AID 652062); assay type: functional;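 note: luciferase signal from cell-cell fusion driven by HIV-1 clade B AD8 Env; potency is for inhibitors of fusion seen as a drop in luminescence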
[8] = biological target: Tyrosine-protein phosphatase non-receptor type 11 (Homo sapiens, UniProt Q06124); test: SHP2 phosphatase inhibition, dose response, selectivity assay for STEP inhibitor project, biochemical (AID 602367); assay type: functional; details: read-out: IC50_Mean
[9] = biological target: Tyrosine-protein phosphatase non-receptor type 5 (Homo sapiens, UniProt P54829); test: STEP phosphatase inhibitors, confirmation, biochemical, fluorescence intensity, uHTS hits (AID 602372); assay type: functional; details: read-out: IC50_Mean
[10] = biological target: Dual specificity protein phosphatase 3 (Homo sapiens, UniProt P51452); test: VHR phosphatase inhibition, dose response, selectivity assay for STEP inhibitor project, biochemical (AID 602374); assay type: functional; details: read-out: IC50_Mean
[11] = biological target: T2, Voltage-gated N-type calcium channel alpha-1B subunit/Amyloid beta A4 precursor protein-binding family A member 1 (Homo sapiens, UniProt Q00975+Q02410); assay type: protein assay
[12] = biological target: NS3 (Hepatitis C virus, UniProt A3EZJ3); test: PubChem AID 2173; set-up: species or system Hepacivirus hominis
[13] = biological target: T2, Voltage-gated N-type calcium channel alpha-1B subunit/Amyloid beta A4 precursor protein-binding family A member 1; assay type: protein assay; remark: listed apart in the source
[14] = biological target: T3, Bifunctional protein GlmU (Mycobacterium tuberculosis, UniProt P9WMN3); test: Inhibitors of Mycobacterial Glucosamine-1-phosphate acetyl transferase (GlmU). Secondary screen.; set-up: species or system Mycobacterium tuberculosis H37Rv
T3 sequence (P9WMN3 whole entry): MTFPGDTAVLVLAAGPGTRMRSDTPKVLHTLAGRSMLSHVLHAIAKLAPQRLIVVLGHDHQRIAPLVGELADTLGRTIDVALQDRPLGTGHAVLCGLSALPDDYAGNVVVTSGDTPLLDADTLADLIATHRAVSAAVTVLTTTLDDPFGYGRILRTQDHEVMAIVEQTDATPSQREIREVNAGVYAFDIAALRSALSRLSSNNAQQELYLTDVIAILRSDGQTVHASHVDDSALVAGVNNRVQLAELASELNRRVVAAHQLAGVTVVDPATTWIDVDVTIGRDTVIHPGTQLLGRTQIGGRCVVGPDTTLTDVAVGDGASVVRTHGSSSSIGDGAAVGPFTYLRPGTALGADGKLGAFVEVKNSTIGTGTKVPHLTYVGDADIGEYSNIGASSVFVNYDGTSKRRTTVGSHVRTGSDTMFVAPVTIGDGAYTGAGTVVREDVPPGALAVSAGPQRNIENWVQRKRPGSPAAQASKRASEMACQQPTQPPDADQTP

[15] = biological target: Induced myeloid leukemia cell differentiation protein Mcl-1 (Homo sapiens, UniProt Q07820); assay type: functional
[16] = biological target: ORF 73 (Human herpesvirus 8, UniProt O40947); test: inhibitors of C-LANA binding to LBS DNA, dose response, biochemical, fluorescence polarization, cherry-picked samples (AID 504725); set-up: species or system Human gammaherpesvirus 8;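 note: fluorescence polarization of a labeled DNA duplex reporting LANA DNA binding; potency is for inhibitors that block LANA binding to the DNA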
[17] = biological target: Eukaryotic translation initiation factor 4E (Mus musculus, UniProt P63073); test: eIF4E–eIF4G protein interaction inhibitors, dose response, biochemical, TR-FRET (AID 855); assay type: functional;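 note: potency for disrupting eIF4E binding to eIF4GI seen as loss of FRET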
[18] = biological target: DNA (cytosine-5)-methyltransferase 1 (Homo sapiens, UniProt P26358); test: DNMT1 methyltransferase inhibitors, confirmation, biochemical, fluorescent molecular beacon (AID 602386); assay type: functional
[19] = inhibitors of firefly luciferase expression or activity, dose response, H4 neuroglioma cells, luminescence (AID 1990); assay type: functional, cell-based
[20] = Luminescence Cell-Based Dose Response HTS to Identify Inhibitors of 5'UTR Stem-Loop Driven Prion Protein mRNA Translation in H4 Neuroglioblastoma Cells. [Related pubchem assays: 1827 (Project Summary), 1813 (Primary HTS)]; assay type: functional
[21] = inhibitors of SNCA 5'UTR-driven reporter translation, confirmation, H4 neuroglioma cells, luminescence (AID 1988); assay type: functional, cell-based
[22] = biological target: T4, Replicative DNA helicase DnaB (Mycobacterium tuberculosis, UniProt P9WMR3); test: DnaB intein splicing inhibitors, dose response, biochemical, cell-free fluorescence (AID 449749); assay type: functional
T4 sequence (P9WMR3 whole entry): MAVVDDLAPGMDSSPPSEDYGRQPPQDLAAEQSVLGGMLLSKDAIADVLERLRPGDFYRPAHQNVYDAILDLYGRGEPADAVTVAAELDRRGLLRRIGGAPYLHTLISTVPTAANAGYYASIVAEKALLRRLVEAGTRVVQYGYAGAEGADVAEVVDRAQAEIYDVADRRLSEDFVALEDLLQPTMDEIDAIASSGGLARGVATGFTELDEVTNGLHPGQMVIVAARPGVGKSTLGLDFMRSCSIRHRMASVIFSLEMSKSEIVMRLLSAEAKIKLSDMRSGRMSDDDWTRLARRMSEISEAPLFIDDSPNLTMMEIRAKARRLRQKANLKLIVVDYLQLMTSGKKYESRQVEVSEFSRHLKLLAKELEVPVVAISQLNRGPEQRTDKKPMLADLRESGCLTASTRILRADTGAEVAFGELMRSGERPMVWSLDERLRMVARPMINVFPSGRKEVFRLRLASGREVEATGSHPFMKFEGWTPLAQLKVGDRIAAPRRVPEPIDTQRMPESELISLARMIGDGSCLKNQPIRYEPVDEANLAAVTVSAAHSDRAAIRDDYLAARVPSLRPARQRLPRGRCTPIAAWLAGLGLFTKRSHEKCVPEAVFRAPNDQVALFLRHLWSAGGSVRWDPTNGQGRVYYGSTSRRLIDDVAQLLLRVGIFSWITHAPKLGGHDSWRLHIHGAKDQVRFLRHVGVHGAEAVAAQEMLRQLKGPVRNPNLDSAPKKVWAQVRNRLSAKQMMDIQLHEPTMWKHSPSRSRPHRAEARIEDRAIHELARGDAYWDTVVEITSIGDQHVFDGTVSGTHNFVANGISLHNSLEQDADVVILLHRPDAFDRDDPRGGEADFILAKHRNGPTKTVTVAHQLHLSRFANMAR

[23] = biological target: T5, Protein RecA (Mycobacterium tuberculosis, UniProt P9WHJ3); test: Fluorescence Cell-Free Homogeneous Dose Retest to Identify Inhibitors of RecA-Intein Splicing Activity. [Related pubchem assays (depositor defined):AID2097, AID2223, AID489010, AID492950]; assay type: functional
T5 sequence (P9WHJ3 whole entry): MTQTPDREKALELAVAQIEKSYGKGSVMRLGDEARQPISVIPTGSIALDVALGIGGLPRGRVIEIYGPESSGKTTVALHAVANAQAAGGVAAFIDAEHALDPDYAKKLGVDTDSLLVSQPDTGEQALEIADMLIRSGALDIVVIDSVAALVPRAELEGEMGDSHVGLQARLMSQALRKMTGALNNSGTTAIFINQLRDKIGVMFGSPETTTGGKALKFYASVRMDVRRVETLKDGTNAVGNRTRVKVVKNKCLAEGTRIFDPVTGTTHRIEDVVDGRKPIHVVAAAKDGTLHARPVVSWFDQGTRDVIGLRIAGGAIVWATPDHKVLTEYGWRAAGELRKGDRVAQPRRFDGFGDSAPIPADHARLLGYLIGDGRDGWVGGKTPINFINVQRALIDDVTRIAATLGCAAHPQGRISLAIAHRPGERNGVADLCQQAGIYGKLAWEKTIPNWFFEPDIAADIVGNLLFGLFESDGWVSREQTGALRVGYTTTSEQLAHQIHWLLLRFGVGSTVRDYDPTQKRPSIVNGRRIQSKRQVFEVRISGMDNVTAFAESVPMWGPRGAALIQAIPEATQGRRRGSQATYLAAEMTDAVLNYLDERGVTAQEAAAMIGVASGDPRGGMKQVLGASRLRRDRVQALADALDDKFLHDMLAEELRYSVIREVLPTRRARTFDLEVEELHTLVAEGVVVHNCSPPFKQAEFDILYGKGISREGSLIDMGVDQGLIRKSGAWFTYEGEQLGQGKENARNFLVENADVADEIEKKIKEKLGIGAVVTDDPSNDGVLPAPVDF

[24] = tested on: INS1; test: beta cell apoptosis inhibitors, cytokine rescue, dose response, luminescence, retest (AID 449756); assay type: functional, cell-based; details: Rattus norvegicus;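 note: cell death triggered by IL-1 beta plus TNF-alpha plus IFN-gamma mixture; protective hits raise ATP signal compared with cytokine alone wells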
[25] = biological target: T1, Mitochondrial peptide methionine sulfoxide reductase; test: Absorbance-based biochemical high throughput dose response assay for activators of Methionine sulfoxide reductase A (MsrA).; assay type: functional
[26] = biological target: T6, Histone-lysine N-methyltransferase NSD2 (Homo sapiens, UniProt O96028); assay type: biochemical
T6 sequence (O96028 whole entry): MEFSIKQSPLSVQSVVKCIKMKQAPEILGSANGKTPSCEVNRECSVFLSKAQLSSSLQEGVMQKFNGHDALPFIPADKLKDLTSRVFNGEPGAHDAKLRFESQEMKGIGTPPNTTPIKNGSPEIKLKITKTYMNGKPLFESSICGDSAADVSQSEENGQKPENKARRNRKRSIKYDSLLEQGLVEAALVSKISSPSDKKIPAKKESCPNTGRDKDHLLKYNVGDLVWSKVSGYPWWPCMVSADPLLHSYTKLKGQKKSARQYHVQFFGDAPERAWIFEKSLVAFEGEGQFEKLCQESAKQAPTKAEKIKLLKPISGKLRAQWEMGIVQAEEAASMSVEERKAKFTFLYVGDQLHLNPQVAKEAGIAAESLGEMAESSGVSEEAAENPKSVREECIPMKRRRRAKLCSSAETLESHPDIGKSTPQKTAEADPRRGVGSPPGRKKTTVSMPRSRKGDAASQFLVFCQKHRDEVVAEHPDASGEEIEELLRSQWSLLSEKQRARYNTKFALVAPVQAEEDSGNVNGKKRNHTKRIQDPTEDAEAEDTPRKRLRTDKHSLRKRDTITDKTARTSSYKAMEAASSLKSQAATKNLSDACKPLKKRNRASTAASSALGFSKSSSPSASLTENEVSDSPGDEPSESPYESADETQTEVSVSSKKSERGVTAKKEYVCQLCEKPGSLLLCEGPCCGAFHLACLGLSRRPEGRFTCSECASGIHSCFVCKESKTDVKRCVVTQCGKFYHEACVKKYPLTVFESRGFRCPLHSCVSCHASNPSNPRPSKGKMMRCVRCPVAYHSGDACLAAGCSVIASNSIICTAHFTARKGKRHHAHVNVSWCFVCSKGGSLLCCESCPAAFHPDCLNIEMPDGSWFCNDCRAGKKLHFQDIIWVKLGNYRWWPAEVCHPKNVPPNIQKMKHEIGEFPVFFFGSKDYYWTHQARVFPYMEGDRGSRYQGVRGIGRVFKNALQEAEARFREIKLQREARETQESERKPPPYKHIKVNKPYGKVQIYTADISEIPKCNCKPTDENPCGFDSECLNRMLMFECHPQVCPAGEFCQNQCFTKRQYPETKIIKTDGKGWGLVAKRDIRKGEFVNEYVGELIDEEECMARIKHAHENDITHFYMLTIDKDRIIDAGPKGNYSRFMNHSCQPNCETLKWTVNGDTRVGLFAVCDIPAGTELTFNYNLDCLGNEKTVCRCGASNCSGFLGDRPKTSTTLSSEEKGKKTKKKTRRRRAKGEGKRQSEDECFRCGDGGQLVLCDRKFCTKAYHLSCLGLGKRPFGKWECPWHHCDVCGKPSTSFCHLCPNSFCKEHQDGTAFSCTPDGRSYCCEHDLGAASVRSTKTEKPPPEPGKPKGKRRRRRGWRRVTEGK

T2 sequence (Q00975 whole entry): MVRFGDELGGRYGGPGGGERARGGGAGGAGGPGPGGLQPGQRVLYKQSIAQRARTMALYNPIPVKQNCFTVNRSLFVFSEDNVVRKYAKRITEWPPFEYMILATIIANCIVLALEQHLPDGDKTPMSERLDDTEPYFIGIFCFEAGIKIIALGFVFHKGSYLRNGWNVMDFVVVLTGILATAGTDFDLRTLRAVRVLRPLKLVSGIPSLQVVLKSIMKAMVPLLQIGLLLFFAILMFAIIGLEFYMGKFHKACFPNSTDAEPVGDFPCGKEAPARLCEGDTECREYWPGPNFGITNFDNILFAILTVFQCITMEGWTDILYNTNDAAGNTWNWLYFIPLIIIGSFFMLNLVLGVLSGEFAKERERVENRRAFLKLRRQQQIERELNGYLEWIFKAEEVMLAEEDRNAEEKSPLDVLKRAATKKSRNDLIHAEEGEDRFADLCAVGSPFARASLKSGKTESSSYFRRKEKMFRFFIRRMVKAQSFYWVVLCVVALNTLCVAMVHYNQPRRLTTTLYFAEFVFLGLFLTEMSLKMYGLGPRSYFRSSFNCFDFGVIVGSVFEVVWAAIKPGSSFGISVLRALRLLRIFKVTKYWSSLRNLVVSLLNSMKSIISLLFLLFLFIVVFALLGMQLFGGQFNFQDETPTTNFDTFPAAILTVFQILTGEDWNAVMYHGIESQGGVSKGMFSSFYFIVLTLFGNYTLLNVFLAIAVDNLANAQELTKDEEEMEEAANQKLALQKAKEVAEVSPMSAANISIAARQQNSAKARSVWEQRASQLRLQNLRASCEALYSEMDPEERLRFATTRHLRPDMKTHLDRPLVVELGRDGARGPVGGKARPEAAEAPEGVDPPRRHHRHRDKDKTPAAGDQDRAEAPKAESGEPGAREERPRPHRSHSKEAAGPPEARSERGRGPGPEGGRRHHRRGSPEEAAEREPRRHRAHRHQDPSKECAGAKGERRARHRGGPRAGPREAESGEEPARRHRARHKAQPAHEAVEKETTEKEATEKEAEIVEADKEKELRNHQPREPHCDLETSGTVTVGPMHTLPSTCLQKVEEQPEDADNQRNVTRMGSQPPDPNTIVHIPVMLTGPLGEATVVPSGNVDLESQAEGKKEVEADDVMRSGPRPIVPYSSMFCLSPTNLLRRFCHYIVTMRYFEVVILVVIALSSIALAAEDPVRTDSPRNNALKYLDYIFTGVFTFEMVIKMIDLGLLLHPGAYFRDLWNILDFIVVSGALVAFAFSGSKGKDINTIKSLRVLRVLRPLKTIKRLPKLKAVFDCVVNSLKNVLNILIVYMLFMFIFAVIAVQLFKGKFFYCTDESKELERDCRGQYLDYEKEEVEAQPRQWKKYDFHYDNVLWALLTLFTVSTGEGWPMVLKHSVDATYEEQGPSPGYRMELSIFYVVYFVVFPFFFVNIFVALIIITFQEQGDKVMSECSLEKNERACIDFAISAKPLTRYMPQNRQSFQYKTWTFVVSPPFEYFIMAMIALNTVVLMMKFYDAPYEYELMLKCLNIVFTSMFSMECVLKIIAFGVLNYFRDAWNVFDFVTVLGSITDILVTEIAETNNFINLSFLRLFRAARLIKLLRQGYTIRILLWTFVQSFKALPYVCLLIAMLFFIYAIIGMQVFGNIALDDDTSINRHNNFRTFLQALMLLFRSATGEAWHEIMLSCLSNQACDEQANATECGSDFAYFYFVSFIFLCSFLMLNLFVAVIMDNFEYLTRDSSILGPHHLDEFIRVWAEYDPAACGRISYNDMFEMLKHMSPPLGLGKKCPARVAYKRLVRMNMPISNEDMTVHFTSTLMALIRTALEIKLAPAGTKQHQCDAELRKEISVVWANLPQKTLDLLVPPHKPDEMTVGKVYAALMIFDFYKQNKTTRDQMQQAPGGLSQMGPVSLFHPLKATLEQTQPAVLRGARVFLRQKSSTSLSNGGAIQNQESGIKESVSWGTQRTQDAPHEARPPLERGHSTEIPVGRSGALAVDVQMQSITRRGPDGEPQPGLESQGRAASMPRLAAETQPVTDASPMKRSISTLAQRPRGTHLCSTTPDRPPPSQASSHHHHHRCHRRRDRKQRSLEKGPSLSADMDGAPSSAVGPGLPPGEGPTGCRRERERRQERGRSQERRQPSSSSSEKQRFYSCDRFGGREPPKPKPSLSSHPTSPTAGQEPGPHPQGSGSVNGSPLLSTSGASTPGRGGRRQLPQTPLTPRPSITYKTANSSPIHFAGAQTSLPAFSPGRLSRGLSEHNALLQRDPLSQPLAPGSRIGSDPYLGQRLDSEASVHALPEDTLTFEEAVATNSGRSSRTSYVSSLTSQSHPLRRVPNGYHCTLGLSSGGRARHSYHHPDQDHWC
T2 sequence (Q02410 whole entry): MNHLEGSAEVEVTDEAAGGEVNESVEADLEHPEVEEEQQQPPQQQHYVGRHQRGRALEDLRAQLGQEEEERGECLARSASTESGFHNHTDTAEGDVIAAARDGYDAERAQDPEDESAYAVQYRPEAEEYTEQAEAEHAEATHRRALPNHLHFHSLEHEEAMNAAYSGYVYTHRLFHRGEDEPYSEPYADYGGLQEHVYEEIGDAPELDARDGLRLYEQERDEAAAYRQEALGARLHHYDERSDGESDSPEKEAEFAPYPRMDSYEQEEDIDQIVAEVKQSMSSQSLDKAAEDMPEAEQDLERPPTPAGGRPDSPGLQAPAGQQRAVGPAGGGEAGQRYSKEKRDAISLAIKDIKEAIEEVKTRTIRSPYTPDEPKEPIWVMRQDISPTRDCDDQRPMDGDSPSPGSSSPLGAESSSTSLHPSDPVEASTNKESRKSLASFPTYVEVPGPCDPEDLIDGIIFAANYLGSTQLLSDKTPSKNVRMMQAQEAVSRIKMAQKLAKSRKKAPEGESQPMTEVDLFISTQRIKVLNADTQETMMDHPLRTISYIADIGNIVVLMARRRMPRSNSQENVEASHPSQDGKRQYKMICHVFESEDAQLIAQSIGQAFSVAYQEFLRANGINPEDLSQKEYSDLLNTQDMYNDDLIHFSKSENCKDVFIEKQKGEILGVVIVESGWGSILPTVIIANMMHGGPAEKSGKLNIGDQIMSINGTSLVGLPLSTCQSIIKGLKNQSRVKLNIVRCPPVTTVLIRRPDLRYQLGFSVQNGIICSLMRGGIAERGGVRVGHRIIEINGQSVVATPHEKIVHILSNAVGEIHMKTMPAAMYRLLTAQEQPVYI
T1 sequence (P54149 whole entry, the tested form may be a part): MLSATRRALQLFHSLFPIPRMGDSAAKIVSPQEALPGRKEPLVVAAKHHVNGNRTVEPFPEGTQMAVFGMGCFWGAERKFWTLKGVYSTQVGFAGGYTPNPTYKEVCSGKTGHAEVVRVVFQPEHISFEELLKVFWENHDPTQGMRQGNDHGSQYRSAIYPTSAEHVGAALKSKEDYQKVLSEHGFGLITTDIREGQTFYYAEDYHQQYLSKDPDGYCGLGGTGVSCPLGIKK
Induced myeloid leukemia cell differentiation protein Mcl-1, sequence (Q07820 whole entry): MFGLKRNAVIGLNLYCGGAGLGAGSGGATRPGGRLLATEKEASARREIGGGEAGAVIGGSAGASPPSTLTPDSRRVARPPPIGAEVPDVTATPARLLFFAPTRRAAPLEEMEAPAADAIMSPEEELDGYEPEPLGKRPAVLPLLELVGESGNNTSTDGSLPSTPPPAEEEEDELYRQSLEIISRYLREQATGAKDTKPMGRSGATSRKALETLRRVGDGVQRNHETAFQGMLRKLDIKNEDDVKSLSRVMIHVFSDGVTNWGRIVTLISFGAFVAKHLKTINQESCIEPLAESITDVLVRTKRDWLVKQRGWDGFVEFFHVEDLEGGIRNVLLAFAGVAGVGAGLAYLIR
NS3, sequence (A3EZJ3 whole entry): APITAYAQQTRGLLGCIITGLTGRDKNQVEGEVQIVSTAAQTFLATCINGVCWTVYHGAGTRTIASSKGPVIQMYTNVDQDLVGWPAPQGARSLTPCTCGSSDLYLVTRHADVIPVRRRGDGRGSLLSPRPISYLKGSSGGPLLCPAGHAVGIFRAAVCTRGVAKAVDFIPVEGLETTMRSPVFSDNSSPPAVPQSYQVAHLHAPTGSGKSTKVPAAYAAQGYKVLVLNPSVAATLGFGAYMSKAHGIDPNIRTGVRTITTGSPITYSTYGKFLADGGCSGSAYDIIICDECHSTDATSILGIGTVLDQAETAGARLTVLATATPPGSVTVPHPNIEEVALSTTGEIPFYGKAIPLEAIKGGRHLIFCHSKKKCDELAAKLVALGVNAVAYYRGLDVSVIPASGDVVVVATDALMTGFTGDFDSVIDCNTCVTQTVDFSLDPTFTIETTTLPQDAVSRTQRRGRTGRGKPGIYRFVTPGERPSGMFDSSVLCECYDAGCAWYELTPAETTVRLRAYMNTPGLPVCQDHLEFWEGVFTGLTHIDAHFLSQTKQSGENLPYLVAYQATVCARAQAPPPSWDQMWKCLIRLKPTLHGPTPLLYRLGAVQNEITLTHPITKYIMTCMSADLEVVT
Glucose-6-phosphate 1-dehydrogenase, sequence (P11413 whole entry): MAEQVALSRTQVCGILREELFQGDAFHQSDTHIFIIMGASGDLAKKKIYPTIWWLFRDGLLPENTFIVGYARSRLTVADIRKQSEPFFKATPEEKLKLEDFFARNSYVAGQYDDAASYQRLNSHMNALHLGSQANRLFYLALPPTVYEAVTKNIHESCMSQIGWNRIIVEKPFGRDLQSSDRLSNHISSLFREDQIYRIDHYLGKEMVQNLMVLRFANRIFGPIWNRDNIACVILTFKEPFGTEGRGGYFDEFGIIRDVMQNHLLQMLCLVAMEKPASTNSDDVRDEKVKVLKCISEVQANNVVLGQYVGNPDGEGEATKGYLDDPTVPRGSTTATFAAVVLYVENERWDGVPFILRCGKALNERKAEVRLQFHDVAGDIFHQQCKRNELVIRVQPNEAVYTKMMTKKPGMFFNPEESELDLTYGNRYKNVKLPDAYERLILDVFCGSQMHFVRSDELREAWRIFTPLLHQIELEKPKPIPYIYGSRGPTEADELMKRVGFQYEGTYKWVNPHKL

SMILES: Cc1nc2c(o1)C(=O)c1ccccc1C2=Nc1ccccc1
- IC50 [1]: > 80 µM (inactive)
- IC50 [2]: 155 µM (inactive)
- AC50 [3]: 5.92 µM (active)
- AC50 [4]: 4.8 µM (active)
- AC50 [5]: 3.45 µM (active)
- AC50 [6]: 4.25 µM (active)
- AC50 [7]: 2.74 µM (active)

SMILES: Sc1nnc(-c2cccnc2)n1/N=C/c1ccc(Br)s1
- IC50 [8]: 4.66 µM (active)
- IC50 [9]: > 80 µM (inactive)
- IC50 [10]: 4.27 µM (active)

SMILES: O=C(O)c1ccc(-n2cccc2/C=C2/NC(=O)N(c3cccc(Cl)c3)C2=O)cc1
- IC50 [11]: 3.28 µM (active)
- IC50 [12]: 6.07 µM (active)
- IC50 [13]: 48.1 µM (active)
- IC50 [14]: 66.8 µM (active)
- IC50 [15]: 6.34 µM (active)
- AC50 [16]: 86.8 µM (active)
- IC50 [17]: 50 µM (inactive)
- IC50 [18]: 4.62 µM (active)

SMILES: NC1=C(Br)C(=O)c2ccccc2C1=O
- EC50 [19]: > 60 µM (not active)
- EC50 [20]: > 60 µM (not active)
- EC50 [21]: > 120 µM (not active)
- AC50 [22]: 2.95 µM (active)
- EC50 [23]: 2.99 µM (active)
- AC50 [24]: 6.52 µM (active)
- EC50 [25]: 61.9 µM (inactive)
- AC50 [26]: 10 µM (active)
